Laboratory results from US6221865A, “Inhibitors of protein isoprenyl transferases” (priority 1998, dated 2001).
Where a name gives a salt, the structure may show the parent alone. One block for each compound: values may come before it.

Target: T1, protein farnesyltransferase (Rattus norvegicus, UniProt Q02293+Q04631)
T1 construct: The enzyme is purified according to Reiss, Y., et al., Cell, 62: 81-88 (1990), utilizing steps one through three; from tissue; host or cells: rat brain
Assay: Inhibition of farnesyltransferase (scintillation proximity assay, rat brain enzyme, biotin-K Ras B fragment substrate)
Type: biochemical
Details: for % inhibition of farnesyltransferase at 1 × 10^-6 M / inhibition at 1 µM: 1 × 10^-6 M (Table 2); for % inhibition of farnesyltransferase at 1 × 10^-8 M: 1 × 10^-8 M (Table 4); for inhibition at 1 µM: read-out: % inhibition of farnesyltransferase at 1 × 10^-6 M; for % inhibition of farnesyltransferase at 1 × 10^-5 M: 1 × 10^-5 M (Table 1); for % inhibition of farnesyltransferase at 1 × 10^-7 M: 1 × 10^-7 M (Table 3)
Outline: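 Enzyme from rat brain, partly purified (steps one to three), assayed by SPA kit using 0.1 mM final biotin-K Ras B peptide as prenyl acceptor rather than biotin-lamin. Activity given as percent inhibition.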

T1 sequence (Q02293 whole entry, one chain of several): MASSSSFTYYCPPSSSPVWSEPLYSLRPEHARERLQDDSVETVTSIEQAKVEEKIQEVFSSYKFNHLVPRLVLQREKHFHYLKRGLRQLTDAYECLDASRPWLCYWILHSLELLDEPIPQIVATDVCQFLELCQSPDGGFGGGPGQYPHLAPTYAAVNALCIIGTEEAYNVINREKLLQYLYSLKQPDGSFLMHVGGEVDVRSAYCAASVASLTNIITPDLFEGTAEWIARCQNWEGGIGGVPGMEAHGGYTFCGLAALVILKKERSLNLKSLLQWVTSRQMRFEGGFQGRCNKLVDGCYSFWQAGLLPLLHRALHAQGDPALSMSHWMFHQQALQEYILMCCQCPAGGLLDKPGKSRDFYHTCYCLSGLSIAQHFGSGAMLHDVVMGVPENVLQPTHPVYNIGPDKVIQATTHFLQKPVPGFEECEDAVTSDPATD

Compound: CSCC[C@H](NC(=O)c1ccc(CN(Cc2ccccc2)c2cccc([N+](=O)[O-])c2)cc1-c1ccccc1C)C(=O)[O-].[Li+] [Example 842]
% inhibition of farnesyltransferase at 1 × 10^-8 M: 88%

Compound: Cc1ccccc1-c1cc(CCc2cccc(Oc3ccccc3)c2)ccc1C(=O)N[C@@H](CC[S+](C)[O-])C(=O)O (stereo partly shown) [Example 460, N-[4-(2-(3-phenoxyphenyl)ethyl)-2-(2-methylphenyl)benzoyl]-2-amino-4-methylsulfinylbutanoic acid lithium salt]
inhibition at 1 µM: 88%

Compound: CSCC[C@H](NC(=O)c1ccc(COCCc2ccc(-c3ccc(Cl)cc3)o2)cc1-c1ccccc1C)C(=O)[O-].[Li+] [Example 536]
% inhibition of farnesyltransferase at 1 × 10^-7 M: 79%

Compound: CSCC[C@H](NC(=O)c1ccc(NCC2CNCCN2)cc1-c1ccccc1)C(=O)O (stereo partly shown) [Example 286]
% inhibition of farnesyltransferase at 1 × 10^-6 M: 84%

Compound: CSCC[C@H](NC(=O)c1ccc(CN(C)C(CC2CCCCC2)C(=O)N2CCOCC2)cc1-c1ccccc1C)C(=O)O (stereo partly shown) [Example 302]
inhibition at 1 µM: 31%

Compound: Cc1ccccc1-c1cc(CCc2ccccc2Oc2ccccc2)ccc1C(=O)N[C@@H](CC[S+](C)[O-])C(=O)O (stereo partly shown) [Example 456, N-[4-(2-(2-phenoxyphenyl)ethyl)-2-(2-methylphenyl)benzoyl]-2-amino-4-methylsulfinylbutanoic acid lithium salt]
inhibition at 1 µM: 81%

Compound: CSCC[C@H](NC(=O)c1ccc(COCc2ccc(-c3cccc(F)c3)o2)cc1-c1ccccc1C)C(=O)[O-].[Li+] [Example 436]
% inhibition of farnesyltransferase at 1 × 10^-7 M: 89%

Compound: CSCC[C@H](NC(=O)c1ccc(COCc2cnc(-c3ccc(Cl)cc3)o2)cc1-c1ccccc1C)C(=O)[O-].[Li+] [Example 894]
% inhibition of farnesyltransferase at 1 × 10^-7 M: 89%

Compound: CSCC[C@H](NC(=O)c1ccc(C=Cc2ccccc2Cc2ccccc2)cc1-c1ccccc1C)C(=O)O [Example 457, N-[4-(2-(2-benzylphenyl)ethenyl)-2-(2-methylphenyl)benzoyl]methionine lithium salt]
inhibition at 1 µM: 92%

Compound: CSCC[C@H](NC(=O)c1ccc(CNCCCN2CCOCC2)cc1-c1ccccc1)C(=O)O [Example 377]
% inhibition of farnesyltransferase at 1 × 10^-5 M: 71%

More lines, now with the values ahead:

% inhibition of farnesyltransferase at 1 × 10^-6 M: 62%
Compound: CSCC[C@H](NC(=O)c1ccc(CNCc2ccc(N)cc2)cc1-c1ccccc1)C(=O)O [Example 653]

% inhibition of farnesyltransferase at 1 × 10^-5 M: 68%
Compound: CSCC[C@H](NC(=O)c1ccc(CNc2ccc(-c3ccccc3)cc2)cc1-c1ccccc1)C(=O)O [Example 700]

% inhibition at 0.1 μM (*) (Table 6, * = 0.1 μM (footnote), title prints 0.1 mM): 69%
Compound: CCCCC(OCc1ccc(C(=O)N[C@@H](CCSC)C(=O)[O-])c(-c2ccccc2C)c1)C1CCNCC1.[Li+] (stereo partly shown) [Example 1288]

% inhibition of farnesyltransferase at 1 × 10^-7 M: 93%
Compound: CSCC[C@H](NC(=O)c1ccc(COCCCCC2CCCCC2)cc1-c1ccccc1C)C(=O)O [Example 600]

% inhibition of farnesyltransferase at 1 × 10^-6 M: 80%
Compound: CSCC[C@H](NC(=O)c1ccc(CN(Cc2ccoc2)C(C)C)cc1-c1ccccc1C)C(=O)O [Example 832]

% inhibition of farnesyltransferase at 1 × 10^-6 M: 76%
Compound: CCSC[C@H](CC1CCCCC1)NCc1ccc(C(=O)N(C)[C@@H](CCSC)C(=O)O)c(-c2ccccc2C)c1 [Example 765]

% inhibition of farnesyltransferase at 1 × 10^-7 M: 96%
Compound: CSCC[C@H](NC(=O)c1ccc(CN[C@H](CSc2ccccc2)CC2CCCCC2)cc1-c1ccccc1C)C(=O)O [Example 623]

% inhibition of farnesyltransferase at 1 × 10^-6 M: 92%
Compound: CSCC[C@H](NC(=O)c1ccc(CN(Cc2ccccc2)c2ccccc2C(C)=O)cc1-c1ccccc1C)C(=O)O [Example 844]

% inhibition of farnesyltransferase at 1 × 10^-6 M: 34%
Compound: CSCC[C@H](NC(=O)c1ccc(CNc2ccc(OC(F)(F)F)cc2)cc1-c1ccccc1)C(=O)O [Example 691]

% inhibition of farnesyltransferase at 1 × 10^-5 M: 64%
Compound: CSCC[C@H](NC(=O)c1ccc(CNc2ccc(Oc3ccccc3)cc2)cc1-c1ccccc1)C(=O)O [Example 701]

% inhibition of farnesyltransferase at 1 × 10^-8 M: 96%
Compound: CSCC[C@H](NC(=O)c1ccc(CN(Cc2ccccc2)c2ccc([N+](=O)[O-])cc2)cc1-c1ccccc1C)C(=O)O [Example 843]

% inhibition of farnesyltransferase at 1 × 10^-8 M: 96%
Compound: CSCC[C@H](NC(=O)c1ccc(CN(CCC2CCCCC2)S(=O)(=O)c2ccccc2)cc1-c1ccccc1C)C(=O)O [Example 612]
